Data as given in the supplement of paper PMC10307832.

What follows are cell lines tested with CCN1CCN(c2ccc(Nc3cc(N(C)C(=O)Nc4c(Cl)c(OC)cc(OC)c4Cl)ncn3)cc2)CC1 [BGJ398] + O=C(c1cc(Cc2n[nH]c(=O)c3ccccc23)ccc1F)N1CCN(C(=O)C2CC2)CC1 [Olaparib] (partner 8 µM) (assay: relative viability (nuclei count vs DMSO), 5 days (fraction); higher = more cells survive). Details: first compound 0.3162 µM.
Procedure, shortened: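 Dosing by pin tool came one day after lung cancer cell lines were seeded in 1536-well plates, using either one drug or a fixed anchor-drug dose plus five library-drug doses (not always all listed) in √10 steps. After 5 days, nuclei were counted on 4× images. Relative viability is treated-well nuclei count divided by vehicle-well nuclei count, and values are medians of duplicate plates.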

Cell Line | relative viability
NCI-H1651 | 0.165
EPLC-272H | 0.797
NCI-H2228 | 0.594
NCI-H1792 | 0.607
NCI-H1355 | 0.729
NCI-H3122 | 0.596
NCI-H1437 | 0.607
NCI-H1755 | 0.855
NCI-H2023 | 0.463
HCC-15 | 0.732
NCI-H1793 | 0.824
PC-14 | 0.289

Same assay, conditions: first compound 1 µM

Cell Line | relative viability
NCI-H522 | 0.621
NCI-H727 | 0.641
NCI-H1650 | 0.811
EBC-1 | 0.668
NCI-H1703 | 0.543
NCI-H1993 | 0.997
SW 1573 | 0.525
NCI-H838 | 0.667
LCLC-103H | 0.596
NCI-H520 | 0.238
NCI-H2126 | 0.918
EMC-BAC-2 | 0.456
NCI-H2085 | 0.796
Calu-6 | 0.59
HCC-366 | 0.448
NCI-H1666 | 0.679
NCI-H596 | 0.667
LK-2 | 0.227
NCI-H2087 | 0.613
NCI-H2342 | 0.444
SK-MES-1 | 0.679
H3255 | 0.55
COR-L23 | 0.313

Cell Line | relative viability
COR-L 105 | 0.639
IA-LM | 0.79
LOU-NH91 | 0.927
ChaGo-K-1 | 0.434
NCI-H2170 | 0.553
NCI-H2405 | 0.768
HOP-62 | 0.558
HCC-44 | 0.953
A549 | 0.231
SW 900 | 0.761
LU99A | 0.292
BEN | 0.861
HARA | 0.722
NCI-H1648 | 0.487
HCC-78 | 0.823
NCI-H322M | 0.815
LCLC-97TM1 | 0.277
NCI-H2009 | 0.682
A-427 | 0.538
NCI-H441 | 0.536
NCI-H661 | 0.727
NCI-H1734 | 0.607
NCI-H460 | 0.381

Cell Line | relative viability
NCI-H2347 | 0.63
SK-LU-1 | 0.329
NCI-H1395 | 0.409
201T | 0.843
NCI-H1915 | 0.246
HCC-827 | 0.628
LXF-289 | 1.07
NCI-H23 | 0.268
NCI-H1299 | 0.999
NCI-H647 | 0.603
CAL-12T | 0.666
NCI-H1651 | 0.162
EPLC-272H | 0.656
NCI-H2228 | 0.441
NCI-H1792 | 0.282
NCI-H1355 | 0.7
NCI-H3122 | 0.654
NCI-H1437 | 0.666
NCI-H1755 | 0.912
NCI-H2023 | 0.503
HCC-15 | 0.725
NCI-H1793 | 0.739
PC-14 | 0.27
